Results taken from PMC4052943 (BioMed Research International, 2014).
Read-outs that look alike come from different tables or passages of the source.

What was measured:
[1] = system: Salmonella typhimurium TA100; conditions: TA 100, 500 μM alone (negative control)
Description: (§1) In the preincubation experiment, test compounds and mutagen, each having a volume of 0.1 mL of varying concentrations, were preincubated at 37°C for 30 min and then 0.1 mL of 1 × 10^7 CFU/mL density of the bacterial culture was added, followed by the addition of 2.5 mL of top agar at 45°C (containing 0.5% NaCl and 0.6% agar) supplemented with 0.5 mM histidine-biotin. […] The combined solutions were vortexed and poured onto minimal glucose plates (40% glucose solution and Vogel Bonner medium). The plates were incubated at 37°C for 48 h and the numbers of histidine-independent revertants colonies were scored.
(§2) Survival of the bacteria was routinely monitored for each experiment. Parallel controls were run with compounds alone at all concentrations to test the possible toxicity. The concentrations of the test samples for investigating the antimutagenicity were 50, 100, 200, and 500 μM. […] All the test samples and mutagens were dissolved in DMSO (final conc., 0.01%). […] Plates were set up in triplicate for each concentration and the entire experiment was repeated three times. Inhibition of mutagenicity was expressed as percentage decrease of reverse mutation and calculated as (1) Percent inhibition=[(a−b)/(a−c)]×100, where a = number of histidine revertants induced by mutagen, b = number of histidine revertants induced by mutagen in the presence of test compound, and c = number of revertants induced in negative control.

[2] = system: Salmonella typhimurium TA102
Description: as §1, §2

[3] = system: Salmonella typhimurium TA98; test: Ames antimutagenicity assay (preincubation); conditions: for inhibition at 50 µM / inhibition at 100 µM / inhibition at 250 µM / inhibition at 500 µM: Salmonella enterica, TYPHIMURIUM;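 for all read-outs here: test compound and mutagen preincubated 30 min at 37°C before adding bacteria, then His+ revertant colonies counted after 48 h plating, inhibition relative to mutagen-only versus negative-control revertants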
Description: as §1, §2

SMILES: O=C1O[C@H]2[C@@H]3OC(=O)c4cc(O)c(O)c(O)c4-c4c(O)c(O)c5oc(=O)c6c(c(O)c(O)c7oc(=O)c4c5c76)-c4c(cc(O)c(O)c4O)C(=O)OC[C@H]3OC(O)[C@@H]2OC(=O)c2cc(O)c(O)c(O)c2-c2c1cc(O)c(O)c2O (mixture of isomers) [Punicalagin]
- Number of His+ revertants colonies/plate ([1]; BP tables): 191.0 ± 15.0 colonies/plate
- Number of His+ revertants colonies/plate ([1]; MMS tables): 187.7 ± 9.8 colonies/plate
- Number of His+ revertants colonies/plate ([1]; NaN3 tables): 187.7 ± 9.8 colonies/plate
- Number of His+ revertants colonies/plate ([2]; Salmonella typhimurium): 356.0 ± 10.4 colonies/plate
- Number of His+ revertants colonies/plate ([2]; TA 102, 50 μM alone (negative control), 2AF tables): 320.0 ± 21.9 colonies/plate
- Number of His+ revertants colonies/plate ([2]; TA 102, 50 μM alone (negative control), BP tables): 320.0±21.9 colonies/plate
- Number of His+ revertants colonies/plate ([2]; TA 102, 50 μM alone (negative control), MMS tables): 292.0 ± 7.7 colonies/plate
- Number of His+ revertants colonies/plate ([2]; TA 102, 50 μM alone (negative control), NaN3 tables): 306.7 ± 13.3 colonies/plate
- Number of His+ revertants colonies/plate ([2]; TA 102, 100 μM alone (negative control), 2AF tables): 341.0 ± 18.3 colonies/plate
- Number of His+ revertants colonies/plate ([2]; TA 102, 100 μM alone (negative control), BP tables): 341.0 ± 18.3 colonies/plate
- Number of His+ revertants colonies/plate ([2]; TA 102, 100 μM alone (negative control), MMS tables): 278.0 ± 12.8 colonies/plate
- Number of His+ revertants colonies/plate ([2]; TA 102, 100 μM alone (negative control), NaN3 tables): 275.3 ± 22.1 colonies/plate
- Number of His+ revertants colonies/plate ([2]; TA 102, 250 μM alone (negative control), BP tables): 356.0 ± 10.4 colonies/plate
- Number of His+ revertants colonies/plate ([2]; TA 102, 250 μM alone (negative control), MMS tables): 255.0 ± 13.2 colonies/plate
- Number of His+ revertants colonies/plate ([2]; TA 102, 250 μM alone (negative control), NaN3 tables): 250.0 ± 22.9 colonies/plate
- Number of His+ revertants colonies/plate ([2]; TA 102, 500 μM alone (negative control), 2AF tables): 358.0 ± 19.9 colonies/plate
- Number of His+ revertants colonies/plate ([2]; TA 102, 500 μM alone (negative control), BP tables): 358.0 ± 19.9 colonies/plate
- Number of His+ revertants colonies/plate ([2]; TA 102, 500 μM alone (negative control), MMS tables): 254.0 ± 14.3 colonies/plate
- Number of His+ revertants colonies/plate ([2]; TA 102, 500 μM alone (negative control), NaN3 tables): 231.7 ± 24.8 colonies/plate
- inhibition at 50 µM ([3]; read-out: % inhibition of mutagenicity, TA 98, 50 μM + 2AF, S9): 20.5%
- inhibition at 50 µM ([3]; read-out: % inhibition of mutagenicity, TA 98, 50 μM + BP, S9): 22.1%
- inhibition at 50 µM ([3]; read-out: % inhibition of mutagenicity, TA 98, 50 μM + MMS, no S9): 29.4%
- inhibition at 100 µM ([3]; read-out: % inhibition of mutagenicity, TA 98, 100 μM + 2AF, S9): 37.5%
- inhibition at 100 µM ([3]; read-out: % inhibition of mutagenicity, TA 98, 100 μM + BP, S9): 46.6%
- inhibition at 100 µM ([3]; read-out: % inhibition of mutagenicity, TA 98, 100 μM + MMS, no S9): 46.3%
- inhibition at 100 µM ([3]; read-out: % inhibition of mutagenicity, TA 98, 100 μM + NaN3, no S9): 30%
- inhibition at 250 µM ([3]; read-out: % inhibition of mutagenicity, TA 98, 250 μM + BP, S9): 74.8%
- inhibition at 250 µM ([3]; read-out: % inhibition of mutagenicity, TA 98, 250 μM + MMS, no S9): 59.2%
- inhibition at 250 µM ([3]; read-out: % inhibition of mutagenicity, TA 98, 250 μM + NaN3, no S9): 52.2%
- inhibition at 500 µM ([3]; read-out: % inhibition of mutagenicity, TA 98, 500 μM + 2AF, S9): 81.4%
- inhibition at 500 µM ([3]; read-out: % inhibition of mutagenicity, TA 98, 500 μM + BP, S9): 78.8%
- inhibition at 500 µM ([3]; read-out: % inhibition of mutagenicity, TA 98, 500 μM + MMS, no S9): 71%
- inhibition at 500 µM ([3]; read-out: % inhibition of mutagenicity, TA 98, 500 μM + NaN3, no S9): 65.3%
- Number of His+ revertants colonies/plate ([3]; TA 98, 50 μM + 2AF, S9): 210.3 ± 10.7 colonies/plate
- Number of His+ revertants colonies/plate ([3]; TA 98, 50 μM + BP, S9): 138.0 ± 8.7 colonies/plate
- Number of His+ revertants colonies/plate ([3]; TA 98, 50 μM + MMS, no S9): 50.3 ± 1.8 colonies/plate
- Number of His+ revertants colonies/plate ([3]; TA 98, 100 μM + 2AF, S9): 172.3 ± 12.0 colonies/plate
- Number of His+ revertants colonies/plate ([3]; TA 98, 100 μM + BP, S9): 105.3 ± 9.0 colonies/plate
- Number of His+ revertants colonies/plate ([3]; TA 98, 100 μM + MMS, no S9): 45.3 ± 2.0 colonies/plate
- Number of His+ revertants colonies/plate ([3]; TA 98, 100 μM + NaN3, no S9): 47.3 ± 1.8 colonies/plate
- Number of His+ revertants colonies/plate ([3]; TA 98, 250 μM + BP, S9): 65.0 ± 6.8 colonies/plate
- Number of His+ revertants colonies/plate ([3]; TA 98, 250 μM + MMS, no S9): 39.7 ± 2.0 colonies/plate
- Number of His+ revertants colonies/plate ([3]; TA 98, 250 μM + NaN3, no S9): 40.7 ± 2.6 colonies/plate
- Number of His+ revertants colonies/plate ([3]; TA 98, 500 μM + 2AF, S9): 65.3 ± 4.1 colonies/plate
- Number of His+ revertants colonies/plate ([3]; TA 98, 500 μM + BP, S9): 52.7 ± 4.3 colonies/plate
- Number of His+ revertants colonies/plate ([3]; TA 98, 500 μM + MMS, no S9): 35.0 ± 2.1 colonies/plate
- % inhibition of mutagenicity ([3]; TA 98, 500 μM + MMS, no S9, 500 µM): 70.9%
- Number of His+ revertants colonies/plate ([3]; TA 98, 500 μM + NaN3, no S9): 36.0 ± 1.7 colonies/plate
